Reference: US11440911B2, “Salts and crystals” (INTRA-CELLULAR THERAPIES, INC., priority 2017, dated 2022)

Key:
[1] = salt form of U.S. Pat. No. 7,183,282, precipitated from diethyl ether; cited from earlier work
muscarinic = conditions: cited from earlier work
[2] = solubility of free base in organic solvents; format: physicochemical; conditions: variety of organic solvents
5-HT2C = biological target: T1, 5-HT2C (Homo sapiens, UniProt P28335); conditions: cited from earlier work
T1 sequence (P28335 33-458): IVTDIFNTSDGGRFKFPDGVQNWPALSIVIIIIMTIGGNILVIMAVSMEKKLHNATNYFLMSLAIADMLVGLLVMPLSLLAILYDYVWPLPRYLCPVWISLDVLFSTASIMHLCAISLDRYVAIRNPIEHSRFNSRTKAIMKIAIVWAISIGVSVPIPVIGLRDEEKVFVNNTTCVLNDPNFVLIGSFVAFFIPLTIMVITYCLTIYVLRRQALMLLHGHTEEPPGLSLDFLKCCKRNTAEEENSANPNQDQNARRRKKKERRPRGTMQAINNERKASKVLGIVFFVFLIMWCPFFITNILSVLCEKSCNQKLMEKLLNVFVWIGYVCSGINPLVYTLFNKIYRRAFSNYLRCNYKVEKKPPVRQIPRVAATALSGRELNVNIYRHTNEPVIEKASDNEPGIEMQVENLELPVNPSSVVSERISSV

H1 histaminergic = H1 histaminergic (Homo sapiens, UniProt P35367); conditions: cited from earlier work
Chain of H1 histaminergic (P35367 whole entry): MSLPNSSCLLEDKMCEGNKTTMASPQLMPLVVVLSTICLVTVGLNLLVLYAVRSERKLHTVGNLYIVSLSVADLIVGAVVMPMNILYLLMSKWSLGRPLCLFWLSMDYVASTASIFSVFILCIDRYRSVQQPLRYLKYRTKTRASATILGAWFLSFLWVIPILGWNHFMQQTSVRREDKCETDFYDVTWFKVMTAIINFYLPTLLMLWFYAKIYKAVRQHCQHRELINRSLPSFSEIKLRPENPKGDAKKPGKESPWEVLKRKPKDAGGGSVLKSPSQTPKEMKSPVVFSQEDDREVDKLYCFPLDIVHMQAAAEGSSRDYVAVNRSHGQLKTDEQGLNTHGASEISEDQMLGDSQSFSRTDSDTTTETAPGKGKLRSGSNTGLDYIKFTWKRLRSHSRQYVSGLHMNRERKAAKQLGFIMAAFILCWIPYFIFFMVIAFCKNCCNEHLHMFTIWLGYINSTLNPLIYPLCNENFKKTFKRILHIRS

[3] = free base form; cited from earlier work

SMILES	hygroscopicity [1]	stability [1]	binding to receptor (muscarinic)	solubility in organic solvents [2]	binding to receptor (5-HT2C)	binding to receptor (H1 histaminergic)	aqueous solubility [3]
CN1CCN2c3c(cccc31)C1CN(CCCC(=O)c3ccc(F)cc3)CCC12.Cl (stereo not shown) [hydrochloride salt form of ITI-007]	hygroscopic	poor stability					
CN1CCN2c3c(cccc31)[C@@H]1CN(CCCC(=O)c3ccc(F)cc3)CC[C@@H]12 [ITI-007, 1-(4-fluoro-phenyl)-4-((6bR,10aS)-3-methyl-2,3,6b,9,10,10a-hexahydro-1H,7H-pyrido[3′,4′:4,5]pyrrolo[1,2,3-de]quinoxalin-8-yl)-butan-1-one]			negligible binding	good solubility	negligible binding	negligible binding	poor aqueous solubility
